Results reported in PubChem BioAssay (NCI).
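Where inhibition never reached the appropriate level, the endpoint shown equals the highest concentration tested. Otherwise, values were interpolated linearly from a five-concentration, 48-hour dose response in 96-well plates. GI50 = concentration required for 50% inhibition of growth. The concentration for full growth arrest is given as TGI.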

Columns and labels:
Experiment in all cases: growth of human tumour cells (NCI), 48 h
786-0 renal = tested on: 786-0 renal
A498 renal = tested on: A498 renal
A549 NSCLC = tested on: A549 NSCLC
ACHN renal = tested on: ACHN renal
BT-549 breast = tested on: BT-549 breast
CAKI-1 renal = tested on: CAKI-1 renal
COLO 205 colon = tested on: COLO 205 colon
DU-145 prostate = tested on: DU-145 prostate
EKVX NSCLC = tested on: EKVX NSCLC
HCC-2998 colon = tested on: HCC-2998 colon
HCT-116 colon = tested on: HCT-116 colon
HCT-15 colon = tested on: HCT-15 colon
HL-60(TB) leukemia = tested on: HL-60(TB) leukemia
HOP-62 NSCLC = tested on: HOP-62 NSCLC
HOP-92 NSCLC = tested on: HOP-92 NSCLC
HS 578T breast = tested on: HS 578T breast
HT29 colon = tested on: HT29 colon
IGROV1 ovarian = tested on: IGROV1 ovarian
K-562 leukemia = tested on: K-562 leukemia
KM12 colon = tested on: KM12 colon
LOX IMVI melanoma = tested on: LOX IMVI melanoma
M14 melanoma = tested on: M14 melanoma
MALME-3M melanoma = tested on: MALME-3M melanoma
MCF7 breast = tested on: MCF7 breast
MDA-MB-231 breast = tested on: MDA-MB-231 breast
MDA-MB-435 = tested on: MDA-MB-435
MDA-MB-468 breast = tested on: MDA-MB-468 breast
MOLT-4 leukemia = tested on: MOLT-4 leukemia
NCI-H226 lung = tested on: NCI-H226 lung
NCI-H23 lung = tested on: NCI-H23 lung
NCI-H460 lung = tested on: NCI-H460 lung
NCI-H522 lung = tested on: NCI-H522 lung
OVCAR-3 ovarian = tested on: OVCAR-3 ovarian
OVCAR-4 ovarian = tested on: OVCAR-4 ovarian
OVCAR-5 ovarian = tested on: OVCAR-5 ovarian
OVCAR-8 ovarian = tested on: OVCAR-8 ovarian
PC-3 prostate = tested on: PC-3 prostate
RPMI-8226 leukemia = tested on: RPMI-8226 leukemia
RXF 393 renal = tested on: RXF 393 renal
SF-268 CNS = tested on: SF-268 CNS
SF-295 CNS = tested on: SF-295 CNS
SF-539 CNS = tested on: SF-539 CNS
SK-MEL-2 melanoma = tested on: SK-MEL-2 melanoma
SK-MEL-28 melanoma = tested on: SK-MEL-28 melanoma
SK-MEL-5 melanoma = tested on: SK-MEL-5 melanoma
SK-OV-3 ovarian = tested on: SK-OV-3 ovarian
SN12C renal = tested on: SN12C renal
SNB-19 CNS = tested on: SNB-19 CNS
SNB-75 CNS = tested on: SNB-75 CNS
SR leukemia = tested on: SR leukemia
SW-620 colon = tested on: SW-620 colon
T-47D breast = tested on: T-47D breast
TK-10 renal = tested on: TK-10 renal
U251 CNS = tested on: U251 CNS
UACC-257 melanoma = tested on: UACC-257 melanoma
UACC-62 melanoma = tested on: UACC-62 melanoma
UO-31 renal = tested on: UO-31 renal

Q: With `N#CC1=C(c2ccco2)Nc2c(c(-c3ccccc3)nn2-c2ccccc2)C12C(=O)Nc1ccc(Br)cc12` (centres undefined) as the compound, how does the GI50 (786-0 renal) read?
A: 21.3 µM

Q: What about the TGI (786-0 renal) of the same compound?
A: 51.8 µM

Q: What about the GI50 (A498 renal) of the same compound?
A: 16.8 µM

Q: And the TGI (A498 renal)?
A: 32.1 µM

Q: What about the GI50 (A549 NSCLC) of the same compound?
A: 17.4 µM

Q: And the TGI (A549 NSCLC)?
A: 33 µM

Q: And the GI50 (ACHN renal)?
A: 18.7 µM

Q: What about the TGI (ACHN renal) of the same compound?
A: 35.7 µM

Q: And the GI50 (BT-549 breast)?
A: 14.6 µM

Q: And the TGI (BT-549 breast)?
A: 29.7 µM

Q: What about the GI50 (CAKI-1 renal) of the same compound?
A: 19.3 µM

Q: What about the TGI (CAKI-1 renal) of the same compound?
A: 43.2 µM

Q: And the GI50 (COLO 205 colon)?
A: 25.4 µM

Q: What about the TGI (COLO 205 colon) of the same compound?
A: 69.1 µM

Q: And the GI50 (DU-145 prostate)?
A: 20.5 µM

Q: And the TGI (DU-145 prostate)?
A: 40.2 µM

Q: And the GI50 (EKVX NSCLC)?
A: 20.9 µM

Q: What about the TGI (EKVX NSCLC) of the same compound?
A: 54.6 µM

Q: What about the GI50 (HCC-2998 colon) of the same compound?
A: 36.5 µM

Q: What about the TGI (HCC-2998 colon) of the same compound?
A: > 100 µM

Q: What about the GI50 (HCT-116 colon) of the same compound?
A: 18.6 µM

Q: And the TGI (HCT-116 colon)?
A: 36.3 µM

Q: And the GI50 (HCT-15 colon)?
A: 18.1 µM

Q: And the TGI (HCT-15 colon)?
A: 36.9 µM

Q: What about the GI50 (HL-60(TB) leukemia) of the same compound?
A: 53.2 µM

Q: What about the TGI (HL-60(TB) leukemia) of the same compound?
A: > 100 µM

Q: What about the GI50 (HOP-62 NSCLC) of the same compound?
A: 18.4 µM

Q: And the TGI (HOP-62 NSCLC)?
A: 37.8 µM

Q: What about the GI50 (HOP-92 NSCLC) of the same compound?
A: 16.8 µM

Q: And the TGI (HOP-92 NSCLC)?
A: 33.2 µM

Q: And the GI50 (HS 578T breast)?
A: 19.3 µM

Q: What about the TGI (HS 578T breast) of the same compound?
A: 47.8 µM

Q: And the GI50 (HT29 colon)?
A: 18.3 µM

Q: And the TGI (HT29 colon)?
A: 35.2 µM

Q: And the GI50 (IGROV1 ovarian)?
A: 18.5 µM

Q: And the TGI (IGROV1 ovarian)?
A: 34.6 µM

Q: What about the GI50 (K-562 leukemia) of the same compound?
A: 38 µM

Q: And the TGI (K-562 leukemia)?
A: > 100 µM

Q: What about the GI50 (KM12 colon) of the same compound?
A: 33.2 µM

Q: And the TGI (KM12 colon)?
A: > 100 µM

Q: And the GI50 (LOX IMVI melanoma)?
A: 18.1 µM

Q: What about the TGI (LOX IMVI melanoma) of the same compound?
A: 34.8 µM

Q: And the GI50 (M14 melanoma)?
A: 18.5 µM

Q: And the TGI (M14 melanoma)?
A: 36.8 µM

Q: What about the GI50 (MALME-3M melanoma) of the same compound?
A: 16.1 µM

Q: And the TGI (MALME-3M melanoma)?
A: 29.9 µM

Q: And the GI50 (MCF7 breast)?
A: 17.3 µM

Q: And the TGI (MCF7 breast)?
A: 33.1 µM

Q: What about the GI50 (MDA-MB-231 breast) of the same compound?
A: 18.3 µM

Q: What about the TGI (MDA-MB-231 breast) of the same compound?
A: 34.2 µM

Q: And the GI50 (MDA-MB-435)?
A: 24.2 µM

Q: What about the TGI (MDA-MB-435) of the same compound?
A: 61.5 µM

Q: And the GI50 (MDA-MB-468 breast)?
A: 26 µM

Q: And the TGI (MDA-MB-468 breast)?
A: 69.3 µM

Q: And the GI50 (MOLT-4 leukemia)?
A: 35.2 µM

Q: What about the TGI (MOLT-4 leukemia) of the same compound?
A: > 100 µM

Q: What about the GI50 (NCI-H226 lung) of the same compound?
A: 21.1 µM

Q: And the TGI (NCI-H226 lung)?
A: 44.4 µM

Q: What about the GI50 (NCI-H23 lung) of the same compound?
A: 21.5 µM

Q: And the TGI (NCI-H23 lung)?
A: 47.7 µM

Q: What about the GI50 (NCI-H460 lung) of the same compound?
A: 17.9 µM

Q: And the TGI (NCI-H460 lung)?
A: 33.4 µM

Q: And the GI50 (NCI-H522 lung)?
A: 20.4 µM

Q: What about the TGI (NCI-H522 lung) of the same compound?
A: 48.4 µM

Q: What about the GI50 (OVCAR-3 ovarian) of the same compound?
A: 28.9 µM

Q: And the TGI (OVCAR-3 ovarian)?
A: 96.4 µM

Q: What about the GI50 (OVCAR-4 ovarian) of the same compound?
A: 19.2 µM

Q: And the TGI (OVCAR-4 ovarian)?
A: 40.7 µM

Q: What about the GI50 (OVCAR-5 ovarian) of the same compound?
A: 19.1 µM

Q: What about the TGI (OVCAR-5 ovarian) of the same compound?
A: 44.2 µM

Q: And the GI50 (OVCAR-8 ovarian)?
A: 18 µM

Q: What about the TGI (OVCAR-8 ovarian) of the same compound?
A: 33.1 µM

Q: What about the GI50 (PC-3 prostate) of the same compound?
A: 16.2 µM

Q: And the TGI (PC-3 prostate)?
A: 31.6 µM

Q: And the GI50 (RPMI-8226 leukemia)?
A: 35.9 µM

Q: And the TGI (RPMI-8226 leukemia)?
A: > 100 µM

Q: And the GI50 (RXF 393 renal)?
A: 17.3 µM

Q: And the TGI (RXF 393 renal)?
A: 34.5 µM

Q: What about the GI50 (SF-268 CNS) of the same compound?
A: 26.8 µM

Q: And the TGI (SF-268 CNS)?
A: 74 µM

Q: What about the GI50 (SF-295 CNS) of the same compound?
A: 19.6 µM

Q: And the TGI (SF-295 CNS)?
A: 50 µM

Q: What about the GI50 (SF-539 CNS) of the same compound?
A: 18.1 µM

Q: And the TGI (SF-539 CNS)?
A: 35.1 µM

Q: And the GI50 (SK-MEL-2 melanoma)?
A: 18.1 µM

Q: What about the TGI (SK-MEL-2 melanoma) of the same compound?
A: 36.7 µM

Q: And the GI50 (SK-MEL-28 melanoma)?
A: 17.9 µM

Q: What about the TGI (SK-MEL-28 melanoma) of the same compound?
A: 33.6 µM

Q: What about the GI50 (SK-MEL-5 melanoma) of the same compound?
A: 18 µM

Q: And the TGI (SK-MEL-5 melanoma)?
A: 32.6 µM

Q: And the GI50 (SK-OV-3 ovarian)?
A: 17.3 µM

Q: What about the TGI (SK-OV-3 ovarian) of the same compound?
A: 34.1 µM

Q: And the GI50 (SN12C renal)?
A: 18.3 µM

Q: What about the TGI (SN12C renal) of the same compound?
A: 35.6 µM

Q: What about the GI50 (SNB-19 CNS) of the same compound?
A: 18.6 µM

Q: And the TGI (SNB-19 CNS)?
A: 42.2 µM

Q: What about the GI50 (SNB-75 CNS) of the same compound?
A: 16 µM

Q: What about the TGI (SNB-75 CNS) of the same compound?
A: 38 µM

Q: And the GI50 (SR leukemia)?
A: 48.9 µM

Q: And the TGI (SR leukemia)?
A: > 100 µM

Q: What about the GI50 (SW-620 colon) of the same compound?
A: 30 µM

Q: And the TGI (SW-620 colon)?
A: 97.6 µM

Q: And the GI50 (T-47D breast)?
A: 30.4 µM

Q: And the TGI (T-47D breast)?
A: > 100 µM

Q: What about the GI50 (TK-10 renal) of the same compound?
A: 17 µM

Q: And the TGI (TK-10 renal)?
A: 33.5 µM

Q: What about the GI50 (U251 CNS) of the same compound?
A: 18 µM

Q: What about the TGI (U251 CNS) of the same compound?
A: 33.4 µM

Q: And the GI50 (UACC-257 melanoma)?
A: 20.5 µM

Q: And the TGI (UACC-257 melanoma)?
A: 50.6 µM

Q: What about the GI50 (UACC-62 melanoma) of the same compound?
A: 17.2 µM

Q: And the TGI (UACC-62 melanoma)?
A: 32.1 µM

Q: And the GI50 (UO-31 renal)?
A: 28.1 µM

Q: What about the TGI (UO-31 renal) of the same compound?
A: > 100 µM
